Measured values as given in the NIST ThermoML archive (doi:10.1021/acs.jced.8b00132).
Several values for one entry are separate records, joined by “and”; a condition that tells them apart may be missing. Identical values can stand only once.

Conditions: Gas, transient hot wire

O=C(C(F)(F)C(F)(F)F)C(F)(C(F)(F)F)C(F)(F)F [dodecafluoro-2-methylpentan-3-one]
Conditions	thermal conductivity
499.92 K, 25604 kPa	0.05225 W/m/K
499.93 K, 870 kPa	0.02694 W/m/K
499.93 K, 6552 kPa	0.0387 W/m/K
499.93 K, 13400 kPa	0.04487 W/m/K
499.93 K, 18421 kPa	0.04818 W/m/K
499.94 K, 869 kPa	0.0272 W/m/K
499.94 K, 18421 kPa	0.0482 W/m/K
499.95 K, 5597 kPa	0.03741 W/m/K
499.96 K, 2952 kPa	0.03132 W/m/K
499.96 K, 3620 kPa	0.0341 W/m/K
499.97 K, 25600 kPa	0.05221 W/m/K
499.97 K, 25604 kPa	0.05228 W/m/K
499.98 K, 645 kPa	0.02717 W/m/K
499.99 K, 10173 kPa	0.04254 W/m/K
499.99 K, 13400 kPa	0.04504 W/m/K
499.99 K, 13402 kPa	0.04506 W/m/K
499.99 K, 18421 kPa	0.04841 W/m/K
500 K, 646 kPa	0.02728 W/m/K
500 K, 2952 kPa	0.03119 W/m/K
500 K, 3286 kPa	0.03306 W/m/K and 0.03284 W/m/K
500 K, 6554 kPa	0.03863 W/m/K
500 K, 6555 kPa	0.03872 W/m/K
500 K, 8108 kPa	0.04046 W/m/K
500 K, 10172 kPa	0.04249 W/m/K
500.01 K, 1594 kPa	0.02714 W/m/K
500.01 K, 2129 kPa	0.02838 W/m/K
500.02 K, 1594 kPa	0.02737 W/m/K
500.02 K, 2129 kPa	0.0285 W/m/K
500.02 K, 2565 kPa	0.02947 W/m/K
500.02 K, 2566 kPa	0.0295 W/m/K
500.02 K, 8108 kPa	0.04041 W/m/K
500.02 K, 18425 kPa	0.0483 W/m/K
500.05 K, 419 kPa	0.02753 W/m/K
500.06 K, 419 kPa	0.02752 W/m/K
500.07 K, 10171 kPa	0.04243 W/m/K
500.08 K, 870 kPa	0.02705 W/m/K and 0.02701 W/m/K
500.08 K, 6554 kPa	0.03889 W/m/K and 0.03865 W/m/K
500.08 K, 8107 kPa	0.04045 W/m/K
500.08 K, 18421 kPa	0.04829 W/m/K
500.09 K, 2952 kPa	0.03151 W/m/K
500.1 K, 2952 kPa	0.03143 W/m/K
500.1 K, 8107 kPa	0.04058 W/m/K
500.1 K, 13402 kPa	0.04498 W/m/K
500.12 K, 644 kPa	0.02715 W/m/K
500.13 K, 645 kPa	0.02741 W/m/K
500.13 K, 1594 kPa	0.02735 W/m/K
500.14 K, 2565 kPa	0.0296 W/m/K
500.15 K, 1594 kPa	0.02739 W/m/K
500.15 K, 10171 kPa	0.04243 W/m/K
500.16 K, 419 kPa	0.02764 W/m/K
500.16 K, 10174 kPa	0.04246 W/m/K
500.16 K, 13402 kPa	0.04495 W/m/K
500.17 K, 6553 kPa	0.03885 W/m/K
500.17 K, 8107 kPa	0.04052 W/m/K
500.17 K, 8287 kPa	0.04057 W/m/K
500.17 K, 13401 kPa	0.04512 W/m/K
500.18 K, 6551 kPa	0.03865 W/m/K
500.18 K, 8108 kPa	0.04052 W/m/K
500.18 K, 8283 kPa	0.0406 W/m/K
500.2 K, 419 kPa	0.02743 W/m/K
500.23 K, 871 kPa	0.02696 W/m/K
500.24 K, 872 kPa	0.02702 W/m/K
500.24 K, 2563 kPa	0.02975 W/m/K and 0.02983 W/m/K
500.25 K, 6550 kPa	0.0387 W/m/K
500.25 K, 10172 kPa	0.04247 W/m/K
500.26 K, 6550 kPa	0.0388 W/m/K
500.27 K, 8107 kPa	0.04068 W/m/K and 0.04066 W/m/K
500.27 K, 8290 kPa	0.04063 W/m/K
500.27 K, 8294 kPa	0.04069 W/m/K
500.28 K, 643 kPa	0.02732 W/m/K and 0.02714 W/m/K
500.33 K, 419 kPa	0.02775 W/m/K
500.34 K, 418 kPa	0.02786 W/m/K
500.35 K, 8106 kPa	0.0405 W/m/K
500.36 K, 8300 kPa	0.04074 W/m/K
500.37 K, 8107 kPa	0.04059 W/m/K
500.4 K, 872 kPa	0.02701 W/m/K
500.4 K, 874 kPa	0.02698 W/m/K
500.43 K, 643 kPa	0.02726 W/m/K
500.45 K, 643 kPa	0.0272 W/m/K
500.46 K, 8304 kPa	0.04072 W/m/K
500.46 K, 8307 kPa	0.04066 W/m/K
500.48 K, 417 kPa	0.02764 W/m/K
500.49 K, 417 kPa	0.02771 W/m/K
500.58 K, 8309 kPa	0.04075 W/m/K
